Measurements taken from patent publication US6933315B2, “Derivatives of isoindigo, indigo and indirubin and methods of treating cancer” (priority 2001, dated 2005).

Columns and labels:
[1] = test system: human cancer cell lines; experiment: Growth inhibition by MTT, all tested human cancer cell lines; assay type: cell-based; details: Homo sapiens, 72 h, read-out: IC50, growth inhibitory effects on all tested human cancer cell lines, range over breast, colon, prostate lines, three day exposure
Experimental: (§1) Growth inhibitory effects of NATURA and other agents on human cancer cells were determined by standard MTT (3-(4,5-dimethylthiazol-2-yl)-2,5-diphenyltetrazolium bromide Test) as described previously. Briefly, cancer cells grown exponentially were aliquoted into 96-well plates at a density of 5000 cells/200 μl per well in RPMI 1640 medium containing 10% FBS overnight. The cells in the plates were then exposed to series of dilution of indicated agent. After 72 h of incubation, 100 μl of the medium was removed from each of the wells and 50 μl of a 1 mg/ml solution of 3-(4,5-dimethylthiazol-2-yl)-2,5-diphenyltetrazolium bromide (MTT) was added to each well and the cells were incubated for additional 4 h. 200 μl of solution of 0.04 N HCl-isopropanol was added to each well to dissolve the black fromazan participates, and absorbance at 540 nm was measured on a 96-Well.

[2] = test system: neuroblastoma N2A cells; experiment: DNA fragmentation (ladder) in N2A neuroblastoma cells; assay type: cell-based, Mouse; details: 5 μM, 2 days
Experimental: (§2) Once cancer cells have been arrested at G1 phase by either derivatives of the invention, such as, Meisiondigo or NATURA, they will either differentiate or enter apoptosis. […] FIG. 8 confirms that Meisoindigo and NATURA cause apoptosis. The formation of DNA fragmentation (ladder) were measured, an indicator of cell apoptosis, in both LNCaP prostate and N2A neuroblastoma cells. To do this LNCaP and neuroblastoma N2A cells at exponential growth phase were exposed to indicated concentrations of Meisoindigo or NATURA or Taxol (20 nM, as a positive control) for 2 days. The cells were harvested, washed and DNA extracted. Approximately 2 μg per lane of DNA were subjected to 2% agarose gel electrophoresis.
(§3) Induction of Apoptosis: As we mentioned previously that cancer cells probably have two options after arrest at G1 phase, i.e. differentiation or apoptosis. […] To confirm our hypothesis and earlier observations, we measured poly(ADP-ribose) polymerase (PARP) degradation and the formation of DNA fragmentation (ladder), indicators of cell apoptosis, in both LNCaP prostate and N2A neuroblastoma cells. LNCaP and neuroblastoma N2A cells at exponential growth phase were exposed to indicated concentrations of Meisoindigo or NATURA or Taxol (20 nM, as a positive control) for 2 days. The cells were harvested, washed and DNA extracted. […]

[3] = test system: DU145; experiment: Growth inhibition by MTT, DU145 prostate cancer cells; assay type: cell-based, Human; details: Homo sapiens, DU-145; MTT, 72 h exposure; read-out: IC50 DU145
Experimental: as §1

[4] = test system: DLD-1; experiment: Growth inhibition by MTT, DLD-1 colon cancer cells; assay type: cell-based, Human; details: Homo sapiens, DLD-1, 72 h exposure
Experimental: as §1
as §1, with “FIGS. 3-5 show the anticancer affects” for “Growth inhibitory effects”, “NATURA in MCF-7 breast cancer cells, DLD-1 colon cancer cells,” for “NATURA”, “LNCaP hormone-dependent prostate” for “other agents on human”, “cells. The” for “cells were determined by standard MTT (3-(4,5-dimethylthiazol-2-yl)-2,5-diphenyltetrazolium bromide Test) as described previously. Briefly,”, “fetal bovine serum (FBS)” for “FBS”, “96-Well Microplate Reader. Each experiment was repeated at least three times.” for “96-Well.”

[5] = test system: LNCaP cells; experiment: DNA fragmentation (ladder) in LNCaP cells; assay type: cell-based, Human; details: 15 μM, 2 days
Experimental: as §2, §3

[6] = Acute toxicity, median lethal dose LD50; details: for DFP (Frequency of Death): mice, oral, two weeks
Experimental: The animals were given Meisoindigo suspension orally at dosage of 0, 1.85, 2.60, 3.60, 5.10, 7.14, and 10.00 g/kg respectively. The animals were tested for two weeks, and the LD50 was measured using modified Bliss method as follows.
LD50 was calculated using following equation: LD50=log^−1 [Xm−i(ΣDFP−0.5)]
Here, Xm is the maximal frequency of death, Xm=I in this case; i is the distance of group. It is determined by following equation, in this case r=1.4 i=log 1/r=0.146

[7] = test system: Walker 256; experiment: Anticancer activity against Walker 256 sarcoma
Experimental: Anticancer activity against Walker 256: Wistar rats with body weights between 50 to 55 grams, were randomly divided into several groups, ten of each, respectively. Approximately 2×10^6 of the Walker sarcoma cells were transplanted into a Wistar rat. Twenty-four hours after the transplantation, equal molar dosage (0.384 mM/kg) of NATURA or other sugar derivatives were given orally for 10 days. The animals in the control group were given 0.1 ml saline (drug vehicle, negative control) for the same periods of time as treated group. Twenty-four hours after the last administration, the animals were sacrificed and tumors were removed and weighed.
Briefly, C57 mice, body weight between 18 to 22 grams, and rat, body weight between 50 to 55 grams, were randomly divided into several groups, ten of each, respectively. Approximately 2×10^6 of Lewis cancer cells or Walker sarcoma cells were transplanted into mice or rat. […] The animals in the control group were given 0.1 ml saline (drug vehicle, negative control) for the same periods of time as treated group. The animals at end of the treatment were sacrificed and tumors were removed and weighed.
In order to assess the anticancer activities of NATURA and other sugar derivatives, Wistard rats transplanted with W256 were given the same molar of the tested compounds (0.384 mM/kg) for the same period of time (10 days).

[8] = test system: PC-3; experiment: Growth inhibition by MTT, PC-3 prostate cancer cells; assay type: cell-based, Human; details: Homo sapiens, PC-3; MTT, 72 h exposure; read-out: IC50 PC-3
Experimental: as §1

[9] = test system: cdk4/6; experiment: cdk4/6 activity immuno-precipitated from treated LNCaP cells; assay type: cell-based, Human
Experimental: (§4) Assay for cyclin dependent kinase activity: HUVEC and LNCaP cells were cultured in EMB (endothelial cell basal medium) and RPMI 1640 containing 10% FBS, respectively. The cells grown exponentially were exposed to indicated concentrations of meisoindigo or NATURA for 24 hr. The cells were harvested, washed, and total proteins extracted as described previously. One hundred μg of the proteins were immuno-precipitated using antibodies against cdk2, cdk4/6, PKC, ERK2 or cyclin D1 overnight at 4° C. in the presence of a cocktail of protease inhibitors. The immuno-precipitates were washed 4 times with protein extraction buffer and once with kinase assay buffer, and reacted with 75 μg/ml histone H1 in the presence of [γ-^32P]-ATP (2.5 μCi/10 μM). The phosphorylated histone H1 (represent cdk activity) was measured by scintillation counting or by SDS-polyacrylaimde gel electrophoresis. The direct inhibitory effects of Meisoindigo and NATURA were also measured by reaction of immuno-purified specific enzyme from untreated cells directly with the Meisoindigo or NATURA.
as §4, with “HUVEC” for “Assay for cyclin dependent kinase activity: HUVEC”, “either cdk4/6” for “cdk2, cdk4/6, PKC, ERK2”, “[γ-^32P]-ATP.” for “[γ-^32P]-ATP (2.5 μCi/10 μM).”, “counting.” for “counting or by SDS-polyacrylaimde gel electrophoresis. The direct inhibitory effects of Meisoindigo and NATURA were also measured by reaction of immuno-purified specific enzyme from untreated cells directly with the Meisoindigo or NATURA.”

[10] = Walker 256, rat, oral, Indirubin 100 × 9, Meisoindigo 106 × 9 mg/kgxd
[11] = 15 μM, LNCaP cells exposed 24 h

Structure (SMILES) | IC50 [1] | DNA ladders [2] | IC50 [3] | IC50 [4] | DNA fragmentation [5] | LD50 at 2 weeks ([6]; Kuan Ming, mouse, in vivo, po) | IC50 [8] | inhibition of D cyclins mediated cdk4/6 enzyme activity ([9]; 5.0 μM, LNCaP cells, 24 h) | inhibition of D cyclins mediated cdk4/6 enzyme activity [9, 11] | other results
CN1C(=O)/C(=C2/C(=O)Nc3ccccc32)c2ccccc21 [Meisoindigo] | 2150 to 8310 nM | sufficient to significantly induce DNA ladders | 8310 ± 930 nM | 2150 ± 170 nM | significant DNA fragmentation | 3900 ± 800 mg/kg | 3260 ± 510 nM | Over 56% | complete inhibition | Unit of DF ([6]; Dose 1.86 g/kg): 2.674; [DF]^2P^2 ([6]; Dose 1.86 g/kg): 0; LD50 ([6]; Kuan Ming, mouse, in vivo, po, 2 weeks): 3900 ± 800 mg/kg; DFP (Frequency of Death) ([6]; Dose 1.86 g/kg): 0; DFP (Frequency of Death) ([6]; Dose 2.60 g/kg): 0.20; DFP (Frequency of Death) ([6]; Dose 3.60 g/kg): 0.60; DFP (Frequency of Death) ([6]; Dose 5.10 g/kg): 0.70; DFP (Frequency of Death) ([6]; Dose 7.14 g/kg): 0.80; DFP (Frequency of Death) ([6]; Dose 10.00 g/kg): 1.00; Inhibition (%) [7, 10]: 71.6 ± 3.1%; Tumor Size X ± SD [7, 10]: 2.10 ± 0.17
CC(=O)OC1COC(N2C(=O)/C(=C3/C(=O)Nc4ccccc43)c3ccccc32)C(OC(C)=O)C1OC(C)=O [NATURA, 1-(β-D-O-Triacetyl-xylopyranosyl)-isoindigo] | 1640 to 6920 nM | sufficient to significantly induce DNA ladders | 6920 ± 730 nM | 1640 ± 181 nM | significant DNA fragmentation | 7330 ± 1150 mg/kg | 2410 ± 390 nM | Over 56% | complete inhibition | Percent of Inhibition against Walker 256 ([7]; Wistar rats, 0.384 mM/kg orally for 10 days): 77%; Percent of Inhibition against Walker 256 ([7]; Wistar rats, 0.384 mM/kg orally for 10 days; listed as Xyl-Ac*NATURA)): 77.5%; activity on cdk4 compared with cdk2 ([9]; 5 μM, LNCaP cells, 24 hours): slight stronger activity; inhibitory affect on cdk4/6 activity compared with same concentration of meisoindigo ([9]; 5.0 μm, FIG. 7): greater inhibitory affect
